Drawing on US11976075B2, “Inhibitors of the MYST family of lysine acetyl transferases” (Isosterix, Inc., priority 2022, dated 2024), this text covers IC50 for 25 compounds.

One assay deals with T1, Recombinant KAT6A/MOZ (488-778) protein (Homo sapiens, UniProt Q92794).
T1 construct: Recombinant KAT6A/MOZ (488-778) protein (Active motif, Catalog #81223); purchased Active Motif 81223
T1 sequence (Q92794 488-778): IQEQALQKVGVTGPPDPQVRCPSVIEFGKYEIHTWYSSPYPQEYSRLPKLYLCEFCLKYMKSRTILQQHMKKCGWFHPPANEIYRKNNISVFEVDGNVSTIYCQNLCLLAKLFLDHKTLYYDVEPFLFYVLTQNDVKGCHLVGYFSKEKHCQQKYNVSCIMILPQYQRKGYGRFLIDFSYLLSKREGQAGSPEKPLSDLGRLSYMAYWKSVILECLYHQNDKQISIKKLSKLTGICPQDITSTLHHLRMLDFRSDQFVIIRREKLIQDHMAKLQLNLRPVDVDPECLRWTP
Nature of the assay: Kat6a AlphaLISA Inhibition Screening Assay. The assay is classed as biochemical. The note with it: 10′ pre-incubation; Table 2; read-out: Kat6A biochemical assay: IC50. As for the experimental part:
The Kat6a inhibitory activity of test compounds was determined using an Alpha Screen-based detection method. The assay reactions were conducted in a volume of 10 μL in Alpha Plate, White 384 well plate (cat #6008280, Perkin Elmer). The enzymatic reactions were performed in assay buffer pH 8.0 (50 mM Tris-HCl, 0.1 mM EDTA, 0.01% Tween-20, 1 mM Dithiothreitol, 0.1% BSA (fatty acid free) and 330 nM TSA (Trichostatin A)). 10 μL reaction volume consisting of 25 nM of Recombinant KAT6A/MOZ (488-778) protein (Active motif, Catalog #81223), 400 nM Acetyl coenzyme A (Catalog #A2056, Sigma), 200 nM of Histone H3 peptide [(amino acids 1-21), biotin-labeled (BPS Biosciences, Catalog #52011,)] and a 10-point dose response curve for test/tool compounds were prepared. Enzyme and compounds solution were pre-incubated in assay plate for 60 or 10 min at room temperature then substrate and Acetyl coenzyme A solution were added to the plate. After addition, the plate was sealed with adhesive seals and incubated for 120 minutes at room temperature.
After 120 minutes of incubation, 5 μL (10 μg/mL) of AlphaLISA anti-acetyl-Lysine acceptor beads (Perkin Elmer, Catalog #AL143C) were added to the plate and it was incubated for 60 minutes at room temperature. Then 10 μL (10 μg/mL) of Alpha Streptavidin donor beads (Perkin Elmer, Catalog #6760002S) were added to the plate which was further incubated for 60 minutes at room temperature. After incubation, the alpha signal was recorded by using Perkin Elmer Envision multi-mode reader.
NA means the compound was not active at the concentration tested. […] NT means not tested.
What is called IC50 is the concentration needed to halve the response being measured. `C=CC(=O)NCc1ccc2cc(C(=O)NS(=O)(=O)c3ccccc3F)oc2c1` [Synthetic Example 10, 6-(acrylamidomethyl)-N-((2-fluorophenyl)sulfonyl)benzofuran-2-carboxamide]: the IC50 is no more than 10 µM. As to `C=CC(=O)NCC(=O)NCc1ccc2cc(C(=O)NS(=O)(=O)c3ccccc3F)oc2c1` [Synthetic Example 39, 6-((2-acrylamidoacetamido)methyl)-N-((2-fluorophenyl)sulfonyl)benzofuran-2-carboxamide], the IC50 fell in the range of 20 to 50 µM. In the case of `C=CC(=O)N1CCC(C(=O)NCc2ccc3cc(C(=O)NS(=O)(=O)c4ccccc4F)oc3c2)CC1` [Synthetic Example 14, 1-acryloyl-N-((2-(((2-fluorophenyl)sulfonyl)carbamoyl)benzofuran-6-yl)methyl)piperidine-4-carboxamide], the IC50 lay in the range of 20 to 50 µM.

The assay is the same for the next values; noted with them: 10′ pre-incubation; Table 3; read-out: Kat6A Biochemical assay: IC50.
For `CCC(=O)NCc1ccn(Cc2cc(OC)c3c(NS(=O)(=O)CC4CCCCC4)noc3c2)n1` [compound 129], the IC50 was no more than 10 µM.

Regarding `COc1cc(Cn2cc(C#N)cn2)cc2onc(NS(=O)(=O)CC3CCCCC3)c12` [compound 126, N-(6-((4-cyano-1H-pyrazol-1-yl)methyl)-4-methoxybenzo[d]isoxazol-3-yl)-1-cyclohexylmethanesulfonamide], the IC50 was no more than 10 µM. On the same count and under the same terms, the result for `COc1cccc(OC)c1S(=O)(=O)Nc1nn(C)c2cc(Cn3cccn3)cc(OC)c12` [compound 123, N-(6-((1H-pyrazol-1-yl)methyl)-4-methoxy-1-methyl-1H-indazol-3-yl)-2,6-dimethoxybenzenesulfonamide] reads 10 to 20 µM; that for `COc1cc(Cn2cccn2)cc2c1c(NS(=O)(=O)c1ccccc1F)nn2C` [compound 122, N-(6-((1H-pyrazol-1-yl)methyl)-4-methoxy-1-methyl-1H-indazol-3-yl)-2-fluorobenzenesulfonamide], 20 to 50 µM. Still for that read-out and setting: the same measure for `COc1cc(Cn2ccc(CN)n2)cc2onc(NS(=O)(=O)CC3CCCCC3)c12` [compound 128]: 20 to 50 µM; for `COc1cc(Cn2cc(CN)cn2)cc2onc(NS(=O)(=O)CC3CCCCC3)c12` [compound 130]: no more than 10 µM.

Still in this assay, the particulars now being: 60′ pre-incubation; Table 2; read-out: Kat6A biochemical assay: IC50.
As to `COc1ccccc1S(=O)(=O)Nc1noc2cc(Cn3cc(C(=O)NCC#N)cn3)cc(OC)c12` [Synthetic Example 62, N-(cyanomethyl)-1-((4-methoxy-3-((2-methoxyphenyl)sulfonamido)benzo[d]isoxazol-6-yl)methyl)-1H-pyrazole-4-carboxamide], the IC50 is no more than 10 µM. With `C#CC(=O)NCc1cnn(Cc2cc(OC)c3c(NS(=O)(=O)c4c(OC)cccc4OC)noc3c2)c1` [Synthetic Example 34, N-((1-((3-((2,6-dimethoxyphenyl)sulfonamido)-4-methoxybenzo[d]isoxazol-6-yl)methyl)-1H-pyrazol-4-yl)methyl)propiolamide], the IC50 is no more than 10 µM. In the case of `C#CC(=O)NCc1cnn(Cc2cc(OC)c3c(NS(=O)(=O)c4ccc(C(=O)O)cc4OC)noc3c2)c1` [Synthetic Example 65, 3-methoxy-4-(N-(4-methoxy-6-((4-(propiolamidomethyl)-1H-pyrazol-1-yl)methyl)benzo[d]isoxazol-3-yl)sulfamoyl)benzoic acid], the IC50 was no more than 10 µM. On the same count and under the same terms, the same measure for `COc1cc(Cn2cc3c(n2)CN(C(=O)C#CCN(C)C)C3)cc2onc(NS(=O)(=O)CC3CCCCC3)c12` [Synthetic Example 3, 1-cyclohexyl-N-(6-((5-(4-(dimethylamino)but-2-ynoyl)-5,6-dihydropyrrolo[3,4-c]pyrazol-2(4H)-yl)methyl)-4-methoxybenzo[d]isoxazol-3-yl)methanesulfonamide]: no more than 10 µM; for `CC#CC(=O)NCc1cnn(Cc2cc(OC)c3c(NS(=O)(=O)c4ccccc4OC)noc3c2)c1` [Synthetic Example 57, N-[[1-[[4-methoxy-3-[(2-methoxyphenyl)sulfonylamino]-1,2-benzoxazol-6-yl]methyl]pyrazol-4-yl]methyl] but-2-ynamide]: no more than 10 µM; for `C=CC(=O)NCc1ccn(Cc2cc(OC)c3c(NS(=O)(=O)c4ccccc4F)noc3c2)n1` [Synthetic Example 18, N-((1-((3-((2-fluorophenyl)sulfonamido)-4-methoxybenzo[d]isoxazol-6-yl)methyl)-1H-pyrazol-3-yl)methyl)acrylamide]: no more than 10 µM. Consider `C=CS(=O)(=O)NCc1ccn(Cc2cc(OC)c3c(NS(=O)(=O)c4ccccc4OC)noc3c2)n1` [Synthetic Example 22, 2-methoxy-N-(4-methoxy-6-((3-(vinylsulfonamidomethyl)-1H-pyrazol-1-yl)methyl)benzo[d]isoxazol-3-yl)benzenesulfonamide], for which the IC50 was no more than 10 µM.

`C#CC(=O)NCc1ccnc(-c2cc(C)cc(C(=O)NNS(=O)(=O)c3c(OC)cccc3OC)c2)c1` [Synthetic Example 16, N-((2-(3-(2-((2,6-dimethoxyphenyl)sulfonyl)hydrazine-1-carbonyl)-5-methylphenyl)pyridin-4-yl)methyl)propiolamide]: the IC50 was no more than 10 µM.

Staying with this assay, now noted: 60′ pre-incubation; Table 3; read-out: Kat6A Biochemical assay: IC50.
Take `C#CC(=O)N1CCN(c2cccc(-c3cc(OC)c4c(NS(=O)(=O)c5cc(CC)ccc5OC)noc4n3)c2)CC1` [compound 114, 25-ethyl-2-methoxy-N-(4-methoxy-6-(3-(4-propioloylpiperazin-1-yl)phenyl)isoxazolo[5,4-b]pyridin-3-yl)benzenesulfonamide]: the IC50 was greater than 10 µM.

With `C=CS(=O)(=O)NCc1cnn(Cc2cc(OC)c3c(NS(=O)(=O)c4cc(CC)ccc4OC)noc3c2)c1` [compound 81, 5-ethyl-2-methoxy-N-(4-methoxy-6-((4-(vinylsulfonamidomethyl)-1H-pyrazol-1-yl)methyl)benzo[d]isoxazol-3-yl)benzenesulfonamide], the IC50 is no more than 10 µM. The same measure, in the same setting: the result for `COc1ccccc1S(=O)(=O)Nc1noc2cc(Cn3cc(CNS(=O)(=O)c4cc(F)c(F)c(F)c4)cn3)cc(OC)c12` [compound 80, 3,4,5-trifluoro-N-((1-((4-methoxy-3-((2-methoxyphenyl)sulfonamido)benzo[d]isozolol-6-yl)methyl)-1H-pyrazol-4-yl)methyl) benzenesulfonamide] reads no more than 10 µM; that for `COc1cccc(OC)c1S(=O)(=O)Nc1noc2cc(-c3cccc(N4CCN(C(=O)CCl)CC4)c3)cc(OC)c12` [compound 73, N-(6-(3-(4-(2-chloroacetyl)piperazin-1-yl)phenyl)-4-methoxybenzo[d]isoxazol-3-yl)-2,6-dimethoxybenzenesulfonamide], no more than 10 µM; that for `CCc1ccc(OC)c(S(=O)(=O)Nc2noc3cc(Cn4cc(CNS(C)(=O)=O)cn4)cc(OC)c23)c1` [compound 116], no more than 10 µM. Turning to `CCS(=O)(=O)NCc1cnn(Cc2cc(OC)c3c(NS(=O)(=O)c4c(OC)cccc4OC)noc3c2)c1` [compound 108], the IC50 was no more than 10 µM. Still for that read-out and setting: the result for `C#CC(=O)N1CCc2nn(Cc3cc(OC)c4c(NS(=O)(=O)c5cc(CC)ccc5OC)noc4c3)cc2C1` [105b, 5-ethyl-2-methoxy-N-(4-methoxy-6-((5-propioloyl-4,5,6,7-tetrahydro-2H-pyrazolo[4,3-c]pyridin-2-yl)methyl)benzo[d]isoxazol-3-yl)benzenesulfonamide] reads no more than 10 µM; that for `C#CC(=O)N1CC[C@H](OCc2cc(OC)c3c(NS(=O)(=O)c4cc(CC)ccc4OC)noc3c2)C1` [compound 109, (S)-5-ethyl-2-methoxy-N-(4-methoxy-6-(((1-propioloylpyrrolidin-3-yl)oxy)methyl)benzo[d]isoxazol-3-yl) benzenesulfonamide], no more than 10 µM.
